Source: PubChem BioAssay (NCI)
“And” between values parts separate entries of the source, which are not always exact repeats. Identical values can stand only once.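 Tested at 5 concentrations; 48 h exposure; 96-well plates; endpoints linearly interpolated, else capped at highest concentration. At the GI50, growth is halved. The concentration for full growth arrest is given as TGI.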

Experiments:
Assay in all cases: growth of human tumour cells (NCI), 48 h
[1] = tested on: RXF 393 renal
[2] = tested on: NCI-H226 lung
[3] = tested on: HOP-62 NSCLC
[4] = tested on: DMS 114 small cell lung
[5] = tested on: 786-0 renal
[6] = tested on: SNB-75 CNS
[7] = tested on: SK-MEL-5 melanoma
[8] = tested on: LXFL 529 NSCLC
[9] = tested on: UACC-62 melanoma
[10] = tested on: KM20L2 colon

Row | Structure (SMILES) | TGI [1] | TGI [2] | TGI [3] | TGI [4] | TGI [5] | TGI [6] | TGI [7] | TGI [8] | TGI [9] | TGI [10] | GI50 [1] | GI50 [2] | GI50 [3] | GI50 [5] | GI50 [6] | GI50 [7] | GI50 [8] | GI50 [10] | GI50 [9] | GI50 [4]
1 | O=[N+]([O-])c1ccccc1S(=O)c1ccccc1 (stereo not given) | > 100 µM | > 100 µM | > 100 µM | 51.8 µM | > 100 µM | 58.7 µM | > 100 µM | > 100 µM | > 100 µM |  |  |  |  |  |  |  |  |  |  | 
2 | N#C/C(=C\c1ccc(CP(=O)(O)O)cc1)C(N)=O |  | > 100 µM | > 100 µM | > 100 µM | > 100 µM |  | > 100 µM | > 100 µM | > 100 µM | > 100 µM |  |  |  |  |  |  |  |  |  | 
3 | C=C1C(=O)O[C@@H]2C[C@]3(C)[C@@H](C[C@H]12)[C@](C)(O)CC[C@@H]3O |  | > 100 µM | > 100 µM | > 100 µM | > 100 µM | > 100 µM | > 100 µM | > 100 µM | > 100 µM | > 100 µM |  |  |  |  |  |  |  |  |  | 
4 | O=CC1=CCCC2(C1)OCCO2 | > 100 µM |  | > 100 µM | > 100 µM | > 100 µM | 24.2 µM | > 100 µM | > 100 µM | > 100 µM |  |  |  |  |  |  |  |  |  |  | 
5 | CC(=O)O[C@]1(C(C)=O)CC[C@H]2[C@@H]3C[C@H](C)C4=CC(=O)C=C[C@]4(C)[C@@]3(F)[C@@H](O)C[C@@]21C | > 100 µM | > 100 µM | > 100 µM | > 100 µM | > 100 µM | > 100 µM | > 100 µM |  | > 100 µM | > 100 µM |  |  |  |  |  |  |  |  |  | 
6 | OCC(O)CC[CH2][Sn]([c]1ccccc1)([c]1ccccc1)[c]1ccccc1 (stereo not given) | 19.7 µM | 70.8 µM | 39.1 µM |  | 28.2 µM | 29 µM | 29.1 µM | 24.9 µM | 29.8 µM | 34.7 µM | 4.32 µM | 19 µM | 18.4 µM | 14.8 µM | 15.4 µM | 15.3 µM | 12.3 µM | 19.4 µM | 16.1 µM | 
7 | COC1/C=C/O[C@@]2(C)Oc3c(C)c(O)c4c(O)c(cc(O)c4c3C2=O)NC(=O)/C(C)=C\C=C\[C@H](C)C(O)[C@@H](C)[C@@H](O)[C@@H](C)[C@H](OC(C)=O)[C@@H]1C (stereo not given in full) | 29.9 µM and 25.7 µM | 179 µM | 32.8 µM and 237 µM | 20.6 µM | 15.9 µM and 29.5 µM | 32.3 µM and 119 µM | 67.6 µM and 88.1 µM |  | 28 µM and 42.2 µM | 30.5 µM | 14 µM | 39.6 µM and 59.3 µM | 18.8 µM | 4.29 µM | 18.1 µM | 25.6 µM |  |  | 14.8 µM | 
8 | [Cu+2].[Cu+2].[O-]c1ccccc1C=Nc1ccccc1[O-].[O-]c1ccccc1C=Nc1ccccc1[O-] |  | 36.5 µM | 36.6 µM | 5.13 µM | 20.3 µM | 21.8 µM | 12 µM | 9.48 µM | 14 µM | 28 µM |  | 20.4 µM | 21.9 µM | 7.24 µM | 10.2 µM | 3.3 µM | 3.02 µM | 8.16 µM | 3.55 µM | 1.96 µM
9 | Nc1nc2ncn(CCO)c2c(=O)[nH]1 | > 100 µM | > 100 µM | > 100 µM |  | > 100 µM | > 100 µM |  | > 100 µM | > 100 µM | > 100 µM |  |  |  |  |  |  |  |  |  | 
10 | COc1cc(OC)cc(N2CCC(c3c(N)nc(N)nc3Cl)CC2)c1 | > 100 µM |  | > 100 µM |  | > 100 µM | > 100 µM | 97.7 µM | > 100 µM | > 100 µM | > 100 µM |  |  |  |  |  |  |  |  |  | 
11 | COc1ccc(CC(=O)c2cc(OC)c(OC)cc2C)cc1OC |  |  | > 100 µM | > 100 µM | > 100 µM | > 100 µM | > 100 µM | > 100 µM | > 100 µM | > 100 µM |  |  |  |  |  |  |  |  |  | 
12 | CC(C)(C)c1nc2c(o1)C(=Nc1ccccc1)c1ccccc1C2=O | 14.7 µM | 23.5 µM | 31 µM |  | 64.3 µM | 13.6 µM | 2.97 µM | 50.1 µM | 5.08 µM | 85.8 µM |  |  |  |  |  |  |  |  |  | 
13 | CC(=O)[CH-]C(=O)c1ccccc1.CC(=O)[CH-]C(=O)c1ccccc1.[Nd+3].[OH-].[OH3+] | > 100 µM | > 100 µM | > 100 µM |  | > 100 µM | > 100 µM | > 100 µM | > 100 µM | > 100 µM | > 100 µM | > 100 µM | > 100 µM | > 100 µM | > 100 µM | 60.5 µM | > 100 µM | > 100 µM | > 100 µM | > 100 µM | 
14 | COc1ccc(C(CC(=O)c2ccccc2)C(C(=O)c2ccccc2)C(c2ccc(OC)cc2)C2C(=O)NC(=O)NC2=O)cc1 (stereo not given) | > 100 µM | 62 µM | 66.6 µM |  | > 100 µM | > 100 µM | 31.8 µM |  | 48.9 µM |  | 22.6 µM | 20 µM | 26.3 µM | 27.8 µM | 32.6 µM | 12.5 µM |  |  | 16.2 µM | 
15 | C=C1C(=O)O[C@H]2[C@H]1CC/C(COC(=O)OCCCCCOC(=O)OC/C1=C/CC[C@@]3(C)O[C@H]3[C@H]3OC(=O)C(=C)[C@@H]3CC1)=C\CC[C@@]1(C)O[C@@H]21 | 0.307 µM | 3.42 µM | 4.02 µM |  | 0.93 µM | 2.5 µM | 3.07 µM |  | 3.05 µM |  | 0.155 µM | 1.64 µM | 1.76 µM | 0.266 µM | 1.11 µM | 1.53 µM |  |  | 1.28 µM | 
16 | CCCCCCC1CCC2CCCC(C)N12 (stereo not given) |  | > 100 µM | > 100 µM | > 100 µM | > 100 µM | > 100 µM | > 100 µM | > 10 µM | > 100 µM | > 100 µM |  |  |  |  |  |  |  |  |  | 
17 | O=C1OCC(c2ccc(O)c(O)c2)=C1c1cc(O)c(O)c(O)c1 | > 100 µM | > 100 µM | 33.3 µM |  | 32.7 µM | > 100 µM | > 100 µM |  | > 100 µM |  | > 100 µM | 69 µM | 18.5 µM | 18.1 µM | 54 µM | 38.2 µM |  |  | 52.7 µM | 
18 | CCCC[C@@H]1NC(=O)[C@H](CCCCN)NC(=O)[C@H](CCCNC(=N)N)NC(=O)[C@H](CC(C)C)NC(=O)[C@@H](NC(=O)[C@H](Cc2cccc(Cl)c2)NC(=O)[C@@H]2CCCN2C(=O)[C@@H](NC(C)=O)C(C)C)CCSSC[C@@H](C(=O)N[C@@H](CCCCN)C(=O)N2CCC[C@H]2C(=O)N2CCC[C@H]2C(=O)N[C@@H](CCC(=O)O)C(N)=O)NC(=O)[C@H](Cc2ccccc2)NC(=O)[C@H](CO)NC(=O)[C@H](C)NC(=O)[C@@H]2CCCN2C1=O | > 50 µM | > 50 µM | > 50 µM |  | > 50 µM | > 50 µM | > 50 µM |  | > 50 µM |  | > 50 µM | > 50 µM | > 50 µM | > 50 µM | > 50 µM | > 50 µM |  |  | > 50 µM | 
19 | CC1(C)CCC(S(=O)(=O)c2ccc3c(c2)/C(=N\O)c2cc(S(=O)(=O)N4CCC(O)(c5cccc(C(F)(F)F)c5)CC4)ccc2-3)CC1 | 0.185 µM | 0.0988 µM | 0.0489 µM |  | 0.36 µM | 0.0349 µM | 0.18 µM |  | 0.0351 µM |  | 0.053 µM | 0.0292 µM | 0.0208 µM | 0.145 µM | 0.0158 µM | 0.0454 µM |  |  | 0.0196 µM | 
20 | O=C(Cn1ccnc1[N+](=O)[O-])N(CCO)CCO | > 1250 µM | > 1250 µM | > 250 µM | > 1250 µM | > 250 µM | 250 µM and > 1250 µM | > 1250 µM |  | > 250 µM and 1240 µM | > 1250 µM | > 1250 µM | > 1250 µM | 22.3 µM |  | 182 µM | > 1250 µM |  |  | > 943 µM | 
21 | Cn1ncc2c(Nc3ccc(Br)cc3)nc(Nc3ccc(Br)cc3)nc21 | 7.57 µM | 13.4 µM | 15.4 µM |  | 5.32 µM | 12.5 µM | 7.52 µM |  | 6.82 µM |  | 2.81 µM | 2.62 µM | 4.22 µM | 2.4 µM | 2.23 µM | 2.2 µM |  |  | 2.32 µM | 
22 | COC(=O)c1cnc2nc(N3CCOCC3)[nH]n2c1=O | > 100 µM | > 100 µM | > 100 µM | > 100 µM | > 100 µM | > 100 µM | > 100 µM |  | > 100 µM | > 100 µM |  |  |  |  |  |  |  |  |  | 
23 | COc1ccc(-c2cc3c4c(nc5ccccc5c4c2)CC(c2cc(OC)c(OC)c(OC)c2)O3)cc1 (stereo not given) | 4.65 µM | 3.89 µM | 12.5 µM |  | 3.74 µM | 3.1 µM | 8.27 µM |  | 20.1 µM |  | 1.92 µM | 1.71 µM | 2.98 µM | 1.92 µM | 1.13 µM | 2.67 µM |  |  | 3.54 µM | 
24 | Cc1cc(N(CCCl)CCCl)ccc1C=Nc1cccnc1 | 42.5 µM | 1.79 µM | > 100 µM |  | > 69.1 µM | > 100 µM | 41.7 µM |  | 16.1 µM |  | 11.6 µM | 0.306 µM | 10.5 µM | 6.6 µM | 11.5 µM | 14.6 µM |  |  | 1.59 µM | 
25 | CCOc1ccc(NC(=O)Nc2cc(C(C)C)ccc2C)cc1 | 4.9 µM | 50.1 µM | 22.8 µM |  | 6.72 µM | 10.2 µM | > 100 µM |  | > 89.8 µM |  | 1.64 µM | 10.2 µM | 8.78 µM | 2.64 µM | 2.82 µM | > 51.9 µM |  |  | 16.2 µM | 
